# Reference: patent publication US20120277239A1, “Compositions and Methods for Improving Night Vision” (ALPHA SYNERGY DEVELOPMENT INC., priority 2011, published 2012)
# Where a name gives a salt, the structure may show the parent alone. Read-outs that look alike come from different tables or passages of the source.
# Legend:
# eye redness = settings: brimonidine […]; for Redness (from 0 to 4) (right eye): pH 7.0 to right eye
# From the text: (§1) All pupil measurements were made using Marco video monitor pupillometry in a darkened room, which was captured via digital image capture and monitor adjustable caliper measurement. Once the dark adapted pupil was digitially captured, the instrument allows superiposition of a caliper with 0.1 mm increments to measure the pupil diameter.
# scotopic pupil = settings: brimonidine […]; for % reduction of scotopic pupil size (left eye) / Scotopic pupil size (mm) (left eye): contralateral control left eye, pH 7.0 to right eye; for % reduction of scotopic pupil size (right eye) / Scotopic pupil size (mm) (right eye): treated right eye, pH 7.0
# From the text: as §1
# pupil size = settings: for Onset of pupil reduction / Pupil reduction at 1 hour (mm) / Range (pupil size) at 3 hours: brimonidine […], pH 7.0 q am
# Procedure: The pupil size was measured at the baseline and then 10 minutes and 3 hours after instillation for 3 consecutive weeks.
# surface vasoconstriction = settings: brimonidine 0.01% to 0.05% weight by volume, particularly 0.01% to […]
# [1] = cited from earlier work; for side effects upon application: in vivo; for floppy iris syndrome: systemic or topical α1-adrenoceptor antagonist (Oshika et al)
# pupil size in dim light = settings: cited from earlier work
# intraocular pressure = settings: bunazosin at 0.3%; measured 6 hours post instillation; cited from earlier work
# conjunctival hyperemia = settings: bunazosin at 0.3%; cited from earlier work
# pupil = settings: bunazosin at 0.3%; cited from earlier work
# [2] = pH 7.1; with added constituents of a balanced salt solution
# From the text: The terms “salt” and “constituent of a balanced salt solution” are used interchangeably for the purposes of the present invention. They are a subset of agents that improve solubility of the inventive formulations.
# [3] = Day 2.1 (follows 20 days of consecutive use)
compound,measurement,setting,value
"Brc1c(NC2=NCCN2)ccc2nccnc12.O=C(O)C(O)C(O)C(=O)O [brimonidine, 5-bromo-6-(2-imidazolin-2-ylamino)quinoxaline D-tartrate]",eye whitening in the right eye,"eye redness; pH 7.0, at 0.5 hr, 1.25 hr, 2.25 hr and 3.25 hr",significant eye whitening
same,Redness (from 0 to 4) (right eye),eye redness; time 0 hr (baseline),2
same,Redness (from 0 to 4) (right eye),eye redness; time 0.05 hr,0
same,Redness (from 0 to 4) (right eye),eye redness; time 0.5 hr,0
same,Redness (from 0 to 4) (right eye),eye redness; time 1.25 hr,0
same,Redness (from 0 to 4) (right eye),eye redness; time 2.25 hr,0
same,Redness (from 0 to 4) (right eye),eye redness; time 3.25 hr,0
same,pupil modulation in contralateral control (left eye),scotopic pupil; pH 7.0 applied to right eye,delayed but significant pupil modulation
same,% reduction of scotopic pupil size (left eye),scotopic pupil; time 0 hr (baseline),0%
same,Scotopic pupil size (mm) (left eye),scotopic pupil; time 0 hr (baseline),5 mm
same,% reduction of scotopic pupil size (left eye),scotopic pupil; time 0.05 hr,0%
same,Scotopic pupil size (mm) (left eye),scotopic pupil; time 0.05 hr,5 mm
same,% reduction of scotopic pupil size (left eye),scotopic pupil; time 0.5 hr,0%
same,Scotopic pupil size (mm) (left eye),scotopic pupil; time 0.5 hr,5 mm
same,% reduction of scotopic pupil size (left eye),scotopic pupil; time 1.25 hr,0%
same,Scotopic pupil size (mm) (left eye),scotopic pupil; time 1.25 hr,5 mm
same,% reduction of scotopic pupil size (left eye),scotopic pupil; time 2.25 hr,20%
same,Scotopic pupil size (mm) (left eye),scotopic pupil; time 2.25 hr,4 mm
same,% reduction of scotopic pupil size (left eye),scotopic pupil; time 3.25 hr,20%
same,Scotopic pupil size (mm) (left eye),scotopic pupil; time 3.25 hr,4 mm
same,% reduction of scotopic pupil size (right eye),scotopic pupil; time 0 hr (baseline),0%
same,Scotopic pupil size (mm) (right eye),scotopic pupil; time 0 hr (baseline),5 mm
same,% reduction of scotopic pupil size (right eye),scotopic pupil; time 0.05 hr,0%
same,Scotopic pupil size (mm) (right eye),scotopic pupil; time 0.05 hr,5 mm
same,% reduction of scotopic pupil size (right eye),scotopic pupil; time 0.5 hr,10%
same,Scotopic pupil size (mm) (right eye),scotopic pupil; time 0.5 hr,4.5 mm
same,% reduction of scotopic pupil size (right eye),scotopic pupil; time 1.25 hr,20%
same,Scotopic pupil size (mm) (right eye),scotopic pupil; time 1.25 hr,4 mm
same,% reduction of scotopic pupil size (right eye),scotopic pupil; time 2.25 hr,30%
same,Scotopic pupil size (mm) (right eye),scotopic pupil; time 2.25 hr,3.5 mm
same,% reduction of scotopic pupil size (right eye),scotopic pupil; time 3.25 hr,30%
same,Scotopic pupil size (mm) (right eye),scotopic pupil; time 3.25 hr,3.5 mm
same,Baseline pupil size,"pupil size; baseline before instillation, dark conditions",6.2 mm
same,Onset of pupil reduction,"pupil size; one eye, Day 1-20 Avg",10 to 15 min
same,Pupil reduction at 1 hour (mm),pupil size; Day 1-20 Avg,≥ 1 mm
same,Range (pupil size) at 3 hours,pupil size; Day 1-20 Avg,3.8-4.2
same,Onset of pupil reduction,pupil size; [3],10 to 15 min
same,Pupil reduction at 1 hour (mm),pupil size; [3],≥ 1 mm
same,Range (pupil size) at 3 hours,pupil size; [3],3.8-4.2
same,"surface vasoconstriction, redness and whiteness versus equivalent concentration of oxymetazoline",surface vasoconstriction,"improved surface vasoconstriction, reduced surface redness, and improved whiter appearance"
same,pupil effect in one individual,"pupil dilation; brimonidine […], pH 6.5, one individual who later responded at pH 7.1",no pupil effect
same,treated patients with pupil modulation,"pupil dilation; brimonidine […], pH 7.1, one eye, 4 individuals",100%
same,individuals who experienced reduced dilation,"pupil dilation; topical brimonidine […], pH 6.5, one eye, 13 individuals, modest indoor lighting",2 individuals
same,treated patients with reduced dilation,"pupil dilation; topical brimonidine […], pH 6.5, 13 individuals",15.4%
same,individuals with pupil modulation,"pupil dilation; topical brimonidine […], pH 7.1",4 out of 4
CC[C@@H]1C(=O)OC[C@@H]1Cc1cncn1C [pilocarpine],side effects upon application,[1],"brow ache, ciliary muscle contraction and pseudo myopia (muscle spasm of accommodation), and redness"
same,duration of effect,pupil size in dim light; in vivo,lasts only a few hours
same,pupil in dim light,pupil size in dim light; when first applied,below 3 mm
CCOc1ccccc1OCCN[C@H](C)Cc1ccc(OC)c(S(N)(=O)=O)c1 [tamsulosin],floppy iris syndrome,[1],floppy iris syndrome
CCCC(=O)N1CCCN(c2nc(N)c3cc(OC)c(OC)cc3n2)CC1 [Bunazosin],intraocular pressure reduction,intraocular pressure,about 20%
same,duration before return to baseline,conjunctival hyperemia,about 24 hours
same,mean conjunctival hyperemia score,conjunctival hyperemia,1.5 /4
same,pupil reduction,pupil,about 1.0 mm
Cc1cccc([C@H](C)c2cnc[nH]2)c1C [dexmedetomidine],solubility,[2],≥ 0.1%
"Cc1ccccc1N1CCN(CCc2nnc3n2CCCC3)CC1 [dapiprazole, 5,6,7,8-tetrahydro-3-[2-(4-o,tolyl-1-piperazinypethyl]-8-triazolo[4,3-a]pyridine hydrochloride]",side effects upon application,[1],redness and frequently chemosis
same,effect on pupil size in dim light,pupil size in dim light; clinical application,very little effect on pupil size in dim light
C[C@H](Cc1cc2c(c(C(N)=O)c1)N(CCCO)CC2)NCCOc1ccccc1OCC(F)(F)F [sidolosin],floppy iris syndrome,[1],floppy iris syndrome
